From patent US20160223562A1, “Method for Determining the Concentration of a Peptide” (JPT Peptide Technologies GmbH, priority 2010, published 2016)
Square brackets hold non-standard residues; d marks the D form. Peptide text beside a SMILES is read from it. Tyr(3-NO2) = N[C@@H](Cc1ccc(O)c([N+](=O)[O-])c1)C(=O)O

What was measured:
Trypsin [1] = biological target: T1, Trypsin (Sus scrofa, UniProt P00761); assay: Trypsin cleavage of C-terminal quantification tag -SA-nitroTyr-G from peptides, LC-MS with UV detection at 350 nm; type: biochemical; conditions: for Percent Cleavage of Tag [by UV at 350 nm]: after reduction and alkylation, trypsin enzyme/substrate 1:50 over night at RT
T1 construct: purchased Promega Corporation V511
T1 sequence (P00761 9-231): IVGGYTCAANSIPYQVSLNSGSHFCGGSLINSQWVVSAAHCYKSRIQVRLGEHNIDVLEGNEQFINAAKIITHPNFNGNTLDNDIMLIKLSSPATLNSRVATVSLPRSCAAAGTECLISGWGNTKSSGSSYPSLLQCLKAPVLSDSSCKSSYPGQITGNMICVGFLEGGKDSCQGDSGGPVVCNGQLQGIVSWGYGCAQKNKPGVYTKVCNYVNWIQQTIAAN
Protocol: 23 peptides carrying the C-terminal quantification-tag-SA-nitroTyr-G-OH (SEQ ID NO:2) were synthesized by Fmoc-based solid phase peptide synthesis and purified by HPLC. Each peptide was subjected to the following trypsin cleavage protocol:
(§1) Trypsin Activation: Trypsin (20 μg, sequencing grade modified trypsin, Promega Corporation, Madison, Wis., USA, catalogue no. V511, specific activity 16.965 u/mg) was dissolved in Trypsin resuspension buffer (200 μL, Promega, catalogue no. V542A, ingredient 50 mM acetic acid) and incubated for 15 min at 37° C.
(§2) Reduction and alkylation: The peptide (approx. 0.05 mg) was dissolved in 1 M urea and 100 mM fresh ammonium hydrogen carbonate (300 μL). TCEP (Tris(2-carboxyethyl) phosphine hydrochloride, 0.2 M, 7.5 μL, final concentration 5 mM) was added and the solution incubated at 37° C. for 1 h. After addition of iodoacetamide (0.5 M, 6.0 μL, final concentration 10 mM) the solution was incubated at RT in the dark for another 30 min. Digestion: The sample was digested with activated Trypsin solution (10 μL per well, 1.0 μg, resulting enzyme/substrate ratio 1:50) over night at RT. To stop the digestion, HCl (2 M, 8 μL final concentration 50 mM) and TFA (3.2 μL, final concentration 1%, pH<2) were added. Finally, the sample was analyzed by LC-MS at 350 nm.

Trypsin [2] = biological target: T1, Trypsin; assay: Trypsin cleavage of N-terminal quantification tag Ac-nitroTyr-SGK- from peptides, LC-MS with UV detection at 350 nm; type: biochemical; conditions: for Kusebauch 24 h, RT: Percent Cleavage of Tag [by UV350 - Peptide-Tag vs. Tag]: trypsin protocol of example 9, 24 h; for cleavage efficiency in words: trypsin
Protocol: as §1, §2
38 peptides carrying the N-terminal quantification-tag Ac-nitroTyr-SGK-(SEQ ID NO:32) were synthesized by SPOT synthesis (Table 3). The peptide sequences are based on two different amino acid sequences, which in each case contain 19 different amino acids N-terminally attached to lysine (the 20 naturally occurring amino acids except cysteine).
All peptides were subjected to the same trypsin cleavage protocol as described in example 9. It is apparent that the quantification tag is efficiently cleaved (>99%) in nearly all cases.

| SMILES | Percent Cleavage of Tag [by UV at 350 nm] (Trypsin [1]) | Kusebauch 24 h, RT: Percent Cleavage of Tag [by UV350 - Peptide-Tag vs. Tag] (Trypsin [2]) | cleavage efficiency in words (Trypsin [2]) | cleavage efficiency (LC-MS and UV detection at 350 nm) (Trypsin [1]; trypsin over night at RT) |
| --- | --- | --- | --- | --- |
| CC[C@H](C)[C@H](NC(=O)[C@H](Cc1ccccc1)NC(=O)[C@H](Cc1ccc(O)cc1)NC(=O)[C@H](Cc1c[nH]cn1)NC(=O)[C@@H](NC(=O)[C@H](CC(C)C)NC(=O)[C@H](CCCCN)NC(=O)CNC(=O)[C@H](CO)NC(=O)[C@H](Cc1ccc(O)c([N+](=O)[O-])c1)NC(C)=O)[C@@H](C)O)C(=O)N[C@@H](CC(=O)O)C(=O)N[C@@H](CC(C)C)C(=O)N[C@@H](CC(N)=O)C(=O)N[C@@H](CCCCN)C(=O)O [Peptide 10, Ac-nitroTyr-SGKLTHYFIDLN-K-OH] (Ac-[Tyr(3-NO2)]SGKLTHYFIDLNK-OH) | 100% | 100.0% | – | – |
| CC[C@H](C)[C@H](NC(=O)[C@H](Cc1ccccc1)NC(=O)[C@H](Cc1ccc(O)cc1)NC(=O)[C@H](Cc1c[nH]cn1)NC(=O)[C@@H](NC(=O)[C@H](CCSC)NC(=O)[C@H](CCCCN)NC(=O)CNC(=O)[C@H](CO)NC(=O)[C@H](Cc1ccc(O)c([N+](=O)[O-])c1)NC(C)=O)[C@@H](C)O)C(=O)N[C@@H](CC(=O)O)C(=O)N[C@@H](CC(C)C)C(=O)N[C@@H](CC(N)=O)C(=O)N[C@@H](CCCCN)C(=O)O [Peptide 11, Ac-nitroTyr-SGKMTHYFIDLN-K-OH] (Ac-[Tyr(3-NO2)]SGKMTHYFIDLNK-OH) | 100% | 100.0% | – | – |
| CC[C@H](C)[C@H](NC(=O)[C@H](Cc1ccccc1)NC(=O)[C@H](Cc1ccc(O)cc1)NC(=O)[C@H](Cc1c[nH]cn1)NC(=O)[C@@H](NC(=O)[C@H](CC(N)=O)NC(=O)[C@H](CCCCN)NC(=O)CNC(=O)[C@H](CO)NC(=O)[C@H](Cc1ccc(O)c([N+](=O)[O-])c1)NC(C)=O)[C@@H](C)O)C(=O)N[C@@H](CC(=O)O)C(=O)N[C@@H](CC(C)C)C(=O)N[C@@H](CC(N)=O)C(=O)N[C@@H](CCCCN)C(=O)O [Peptide 12, Ac-nitroTyr-SGKNTHYFIDLN-K-OH] (Ac-[Tyr(3-NO2)]SGKNTHYFIDLNK-OH) | 100% | 100.0% | – | – |
| CC[C@H](C)[C@H](NC(=O)[C@H](Cc1ccccc1)NC(=O)[C@H](Cc1ccc(O)cc1)NC(=O)[C@H](Cc1c[nH]cn1)NC(=O)[C@@H](NC(=O)[C@@H]1CCCN1C(=O)[C@H](CCCCN)NC(=O)CNC(=O)[C@H](CO)NC(=O)[C@H](Cc1ccc(O)c([N+](=O)[O-])c1)NC(C)=O)[C@@H](C)O)C(=O)N[C@@H](CC(=O)O)C(=O)N[C@@H](CC(C)C)C(=O)N[C@@H](CC(N)=O)C(=O)N[C@@H](CCCCN)C(=O)O [Peptide 13, Ac-nitroTyr-SGKPTHYFIDLN-K-OH] (Ac-[Tyr(3-NO2)]SGKPTHYFIDLNK-OH) | 99.4% | 37.0% | not efficiently cleaved | – |
| CC[C@H](C)[C@H](NC(=O)[C@H](Cc1ccccc1)NC(=O)[C@H](Cc1ccc(O)cc1)NC(=O)[C@H](Cc1c[nH]cn1)NC(=O)[C@@H](NC(=O)[C@H](CCC(N)=O)NC(=O)[C@H](CCCCN)NC(=O)CNC(=O)[C@H](CO)NC(=O)[C@H](Cc1ccc(O)c([N+](=O)[O-])c1)NC(C)=O)[C@@H](C)O)C(=O)N[C@@H](CC(=O)O)C(=O)N[C@@H](CC(C)C)C(=O)N[C@@H](CC(N)=O)C(=O)N[C@@H](CCCCN)C(=O)O [Peptide 14, Ac-nitroTyr-SGKQTHYFIDLN-K-OH] (Ac-[Tyr(3-NO2)]SGKQTHYFIDLNK-OH) | 99.6% | 100.0% | – | – |
| CC[C@H](C)[C@H](NC(=O)[C@H](Cc1ccccc1)NC(=O)[C@H](Cc1ccc(O)cc1)NC(=O)[C@H](Cc1c[nH]cn1)NC(=O)[C@@H](NC(=O)[C@H](CCCNC(=N)N)NC(=O)[C@H](CCCCN)NC(=O)CNC(=O)[C@H](CO)NC(=O)[C@H](Cc1ccc(O)c([N+](=O)[O-])c1)NC(C)=O)[C@@H](C)O)C(=O)N[C@@H](CC(=O)O)C(=O)N[C@@H](CC(C)C)C(=O)N[C@@H](CC(N)=O)C(=O)N[C@@H](CCCCN)C(=O)O [Peptide 15, Ac-nitroTyr-SGKRTHYFIDLN-K-OH] (Ac-[Tyr(3-NO2)]SGKRTHYFIDLNK-OH) | 100% | 100.0% | good cleavage efficiencies | – |

Results, then the compound that gave them:

| Percent Cleavage of Tag [by UV at 350 nm] (Trypsin [1]) | Kusebauch 24 h, RT: Percent Cleavage of Tag [by UV350 - Peptide-Tag vs. Tag] (Trypsin [2]) | cleavage efficiency in words (Trypsin [2]) | cleavage efficiency (LC-MS and UV detection at 350 nm) (Trypsin [1]; trypsin over night at RT) | SMILES |
| --- | --- | --- | --- | --- |
| 100% | 100.0% | – | – | CC[C@H](C)[C@H](NC(=O)[C@H](Cc1ccccc1)NC(=O)[C@H](Cc1ccc(O)cc1)NC(=O)[C@H](Cc1c[nH]cn1)NC(=O)[C@@H](NC(=O)[C@H](CO)NC(=O)[C@H](CCCCN)NC(=O)CNC(=O)[C@H](CO)NC(=O)[C@H](Cc1ccc(O)c([N+](=O)[O-])c1)NC(C)=O)[C@@H](C)O)C(=O)N[C@@H](CC(=O)O)C(=O)N[C@@H](CC(C)C)C(=O)N[C@@H](CC(N)=O)C(=O)N[C@@H](CCCCN)C(=O)O [Peptide 16, Ac-nitroTyr-SGKSTHYFIDLN-K-OH] (Ac-[Tyr(3-NO2)]SGKSTHYFIDLNK-OH) |
| 100% | 100.0% | – | – | CC[C@H](C)[C@H](NC(=O)[C@H](Cc1ccccc1)NC(=O)[C@H](Cc1ccc(O)cc1)NC(=O)[C@H](Cc1c[nH]cn1)NC(=O)[C@@H](NC(=O)[C@@H](NC(=O)[C@H](CCCCN)NC(=O)CNC(=O)[C@H](CO)NC(=O)[C@H](Cc1ccc(O)c([N+](=O)[O-])c1)NC(C)=O)[C@@H](C)O)[C@@H](C)O)C(=O)N[C@@H](CC(=O)O)C(=O)N[C@@H](CC(C)C)C(=O)N[C@@H](CC(N)=O)C(=O)N[C@@H](CCCCN)C(=O)O [Peptide 17, Ac-nitroTyr-SGKTTHYFIDLN-K-OH] (Ac-[Tyr(3-NO2)]SGKTTHYFIDLNK-OH) |
| 100% | 100.0% | – | – | CC[C@H](C)[C@H](NC(=O)[C@H](Cc1ccccc1)NC(=O)[C@H](Cc1ccc(O)cc1)NC(=O)[C@H](Cc1c[nH]cn1)NC(=O)[C@@H](NC(=O)[C@@H](NC(=O)[C@H](CCCCN)NC(=O)CNC(=O)[C@H](CO)NC(=O)[C@H](Cc1ccc(O)c([N+](=O)[O-])c1)NC(C)=O)C(C)C)[C@@H](C)O)C(=O)N[C@@H](CC(=O)O)C(=O)N[C@@H](CC(C)C)C(=O)N[C@@H](CC(N)=O)C(=O)N[C@@H](CCCCN)C(=O)O [Peptide 18, Ac-nitroTyr-SGKVTHYFIDLN-K-OH] (Ac-[Tyr(3-NO2)]SGKVTHYFIDLNK-OH) |
| 100% | 100.0% | – | – | CC[C@H](C)[C@H](NC(=O)[C@H](Cc1ccccc1)NC(=O)[C@H](Cc1ccc(O)cc1)NC(=O)[C@H](Cc1c[nH]cn1)NC(=O)[C@@H](NC(=O)[C@H](Cc1c[nH]c2ccccc12)NC(=O)[C@H](CCCCN)NC(=O)CNC(=O)[C@H](CO)NC(=O)[C@H](Cc1ccc(O)c([N+](=O)[O-])c1)NC(C)=O)[C@@H](C)O)C(=O)N[C@@H](CC(=O)O)C(=O)N[C@@H](CC(C)C)C(=O)N[C@@H](CC(N)=O)C(=O)N[C@@H](CCCCN)C(=O)O [Peptide 19, Ac-nitroTyr-SGKWTHYFIDLN-K-OH] (Ac-[Tyr(3-NO2)]SGKWTHYFIDLNK-OH) |
| 74.7% | 100.0% | – | 75% | CC[C@H](C)[C@H](NC(=O)[C@H](Cc1ccccc1)NC(=O)[C@H](Cc1ccc(O)cc1)NC(=O)[C@H](Cc1c[nH]cn1)NC(=O)[C@@H](NC(=O)[C@H](Cc1ccc(O)cc1)NC(=O)[C@H](CCCCN)NC(=O)CNC(=O)[C@H](CO)NC(=O)[C@H](Cc1ccc(O)c([N+](=O)[O-])c1)NC(C)=O)[C@@H](C)O)C(=O)N[C@@H](CC(=O)O)C(=O)N[C@@H](CC(C)C)C(=O)N[C@@H](CC(N)=O)C(=O)N[C@@H](CCCCN)C(=O)O [Peptide 20, Ac-nitroTyr-SGKYTHYFIDLN-K-OH] (Ac-[Tyr(3-NO2)]SGKYTHYFIDLNK-OH) |
| 100% | 100.0% | – | – | CC(=O)N[C@@H](Cc1ccc(O)c([N+](=O)[O-])c1)C(=O)N[C@@H](CO)C(=O)NCC(=O)N[C@@H](CCCCN)C(=O)N[C@@H](C)C(=O)N[C@H](C(=O)N[C@@H](C)C(=O)N[C@@H](CC(C)C)C(=O)N[C@@H](CO)C(=O)N[C@@H](CC(C)C)C(=O)N[C@@H](CC(=O)O)C(=O)N[C@@H](CC(=O)O)C(=O)N[C@H](C(=O)N[C@@H](CCCCN)C(=O)O)C(C)C)C(C)C [Peptide 21, Ac-nitroTyr-SGKAVALSLDDV-K-OH] (Ac-[Tyr(3-NO2)]SGKAVALSLDDVK-OH) |
